Assay results published in paper PMC8308911, “Pharmacokinetic Study of Anti-osteoarthritic Compounds of a Standardized Fraction from Sphaeralcea Angustifolia” (Pharmaceuticals, 2021).
Read-outs that look alike come from different tables or passages of the source.

Experiments:
[1] = mouse
Protocol: (§1) The investigation presented here expected manipulation conditions during all of the sample storage and process periods, which included the stability data from the freeze/defrost, bench-top, autosampler, and long-term stability tests. For all stability studies, fresh QC samples were evaluated by using a freshly prepared standard curve for the measurements. The analyzed conditions were 0, 8, and 24 h at room temperature, 8 h at 4 °C, and 30 days at −70 °C. The concentrations obtained from all of the stability studies were compared with the fresh QC samples, and the percentage of concentration deviation was calculated.

[2] = Stability of the active compounds in mouse plasma under handling and storage conditions; conditions: mice plasma
Protocol: as §1

[3] = Autosampler (4 °C, 8 h), nominal 2.5 μg/mL
[4] = Autosampler (4 °C, 8 h), nominal 5 μg/mL
[5] = Autosampler (4 °C, 8 h), nominal 10 μg/mL
[6] = Long-term (−70 °C, 1 month), nominal 2.5 μg/mL
[7] = Long-term (−70 °C, 1 month), nominal 5 μg/mL
[8] = Long-term (−70 °C, 1 month), nominal 10 μg/mL
[9] = room temperature, 0 h, nominal 2.5 μg/mL
[10] = room temperature, 0 h, nominal 5 μg/mL
[11] = room temperature, 0 h, nominal 10 μg/mL
[12] = room temperature, 8 h, nominal 2.5 μg/mL
[13] = room temperature, 8 h, nominal 5 μg/mL
[14] = room temperature, 8 h, nominal 10 μg/mL
[15] = room temperature, 24 h, nominal 2.5 μg/mL
[16] = room temperature, 24 h, nominal 5 μg/mL
[17] = room temperature, 24 h, nominal 10 μg/mL

SMILES: COc1cc2ccc(=O)oc2cc1O [Scopoletin, scopoletin]
- Accuracy Bias ([1]; 0 h, 2.5 μg/mL): −0.48%
- Observed Concentration ([1]; 0 h, 2.5 μg/mL): 2.49 ± 0.12 µg/mL
- Accuracy Bias ([1]; 0 h, 5 μg/mL): 0.39%
- Observed Concentration ([1]; 0 h, 5 μg/mL): 5.02 ± 0.08 µg/mL
- Accuracy Bias ([1]; 0 h, 10 μg/mL): 0.04%
- Observed Concentration ([1]; 0 h, 10 μg/mL): 10.00 ± 0.37 µg/mL
- Accuracy Bias ([1]; 1 month, 2.5 μg/mL): −7.05%
- Observed Concentration ([1]; 1 month, 2.5 μg/mL): 2.32 ± 0.08 µg/mL
- Accuracy Bias ([1]; 1 month, 5 μg/mL): −2.27%
- Observed Concentration ([1]; 1 month, 5 μg/mL): 4.89 ± 0.17 µg/mL
- Accuracy Bias ([1]; 1 month, 10 μg/mL): −0.46%
- Observed Concentration ([1]; 1 month, 10 μg/mL): 9.95 ± 0.38 µg/mL
- Accuracy Bias ([1]; 24 h, 2.5 μg/mL): −4.63%
- Observed Concentration ([1]; 24 h, 2.5 μg/mL): 2.38 ± 0.08 µg/mL
- Accuracy Bias ([1]; 24 h, 5 μg/mL): 0.43%
- Observed Concentration ([1]; 24 h, 5 μg/mL): 5.02 ± 0.10 µg/mL
- Accuracy Bias ([1]; 24 h, 10 μg/mL): −6.61%
- Observed Concentration ([1]; 24 h, 10 μg/mL): 9.34 ± 0.27 µg/mL

SMILES: COc1cc2oc(=O)ccc2c(O)c1OC [Tomentin, tomentin]
- Accuracy Bias [2, 3]: −2.64%
- Observed Concentration [2, 3]: 2.43 ± 0.11 µg/mL
- Accuracy Bias [2, 4]: −1.65%
- Observed Concentration [2, 4]: 4.92 ± 0.14 µg/mL
- Accuracy Bias [2, 5]: −0.65%
- Observed Concentration [2, 5]: 9.93 ± 0.62 µg/mL
- Accuracy Bias [2, 6]: −7.61%
- Observed Concentration [2, 6]: 2.31 ± 0.09 µg/mL
- Accuracy Bias [2, 7]: −2.90%
- Observed Concentration [2, 7]: 4.85 ± 0.18 µg/mL
- Accuracy Bias [2, 8]: −3.74%
- Observed Concentration [2, 8]: 9.63 ± 0.65 µg/mL
- Accuracy Bias [2, 9]: −4.59%
- Observed Concentration [2, 9]: 2.39 ± 0.09 µg/mL
- Accuracy Bias [2, 10]: −1.48%
- Observed Concentration [2, 10]: 4.93 ± 0.11 µg/mL
- Accuracy Bias [2, 11]: −0.41%
- Observed Concentration [2, 11]: 9.96 ± 0.30 µg/mL
- Accuracy Bias [2, 12]: −7.60%
- Observed Concentration [2, 12]: 2.31 ± 0.08 µg/mL
- Accuracy Bias [2, 13]: −0.86%
- Observed Concentration [2, 13]: 4.96 ± 0.14 µg/mL
- Accuracy Bias [2, 14]: −1.64%
- Observed Concentration [2, 14]: 9.84 ± 0.40 µg/mL
- Accuracy Bias [2, 15]: −5.93%
- Observed Concentration [2, 15]: 2.35 ± 0.09 µg/mL
- Accuracy Bias [2, 16]: −1.73%
- Observed Concentration [2, 16]: 4.91 ± 0.17 µg/mL
- Accuracy Bias [2, 17]: −4.52%
- Observed Concentration [2, 17]: 9.55 ± 0.19 µg/mL
